From the NIST ThermoML archive (doi:10.1021/je400212t)
Where “and” joins values, the source holds several entries; their conditions need not be identical. Equal values may be shown once. ± gives the expanded uncertainty stated by the source.

Details: Liquid, Transpiration method

CCCCCCCCCCN [1-decanamine]
Details	vapor or sublimation pressure
299.1 K	0.013 ± 0.0006 kPa
300.2 K	0.014 ± 0.0007 kPa
301.3 K	0.0158 ± 0.0007 kPa
304 K	0.0195 ± 0.0009 kPa
306.2 K	0.0228 ± 0.0011 kPa
307.3 K	0.0262 ± 0.0012 kPa
308.6 K	0.0291 ± 0.0014 kPa
310.2 K	0.0321 ± 0.0015 kPa
312.2 K	0.036 ± 0.0017 kPa
313.2 K	0.0426 ± 0.002 kPa
315.1 K	0.046 ± 0.0021 kPa
316.2 K	0.0512 ± 0.0024 kPa
317.2 K	0.0553 ± 0.0026 kPa
320 K	0.0655 ± 0.003 kPa
320.9 K	0.0722 ± 0.0034 kPa
323.2 K	0.0805 ± 0.0037 kPa
324.3 K	0.0911 ± 0.0042 kPa and 0.0914 ± 0.0042 kPa
327.2 K	0.106 ± 0.0049 kPa
330.1 K	0.135 ± 0.0063 kPa and 0.1356 ± 0.0063 kPa
332.8 K	0.1661 ± 0.0077 kPa and 0.1645 ± 0.0076 kPa
333.1 K	0.1628 ± 0.0076 kPa and 0.1635 ± 0.0076 kPa
335.9 K	0.1979 ± 0.0092 kPa and 0.2119 ± 0.0098 kPa
338.9 K	0.2519 ± 0.012 kPa and 0.2628 ± 0.012 kPa
341.9 K	0.3064 ± 0.014 kPa and 0.3025 ± 0.014 kPa
343 K	0.3357 ± 0.016 kPa

CCCCCCCN [1-heptanamine]
Details	vapor or sublimation pressure [kPa]
280.2 K	0.07823 ± 0.0036
282.2 K	0.09451 ± 0.0044
284.2 K	0.1088 ± 0.005
286.2 K	0.1232 ± 0.0057
288.2 K	0.1408 ± 0.0065
290.2 K	0.1641 ± 0.0076
292.2 K	0.1907 ± 0.0089
294.2 K	0.2219 ± 0.01
296.2 K	0.2488 ± 0.012
298.3 K	0.2885 ± 0.013
300.3 K	0.3288 ± 0.015
302.2 K	0.38 ± 0.018
303.2 K	0.4098 ± 0.019
306.2 K	0.5027 ± 0.023

CCCCCCCCN [1-octanamine]
Details	vapor or sublimation pressure
274.2 K	0.0157 ± 0.0007 kPa
277.7 K	0.0208 ± 0.001 kPa
281 K	0.0274 ± 0.0013 kPa
283.2 K	0.0325 ± 0.0015 kPa
283.6 K	0.0347 ± 0.0016 kPa
285.9 K	0.0428 ± 0.002 kPa
286.5 K	0.0428 ± 0.002 kPa
289.2 K	0.0517 ± 0.0024 kPa
289.6 K	0.0545 ± 0.0025 kPa
292.4 K	0.069 ± 0.0032 kPa and 0.0677 ± 0.0031 kPa
295.2 K	0.084 ± 0.0039 kPa
295.3 K	0.0856 ± 0.004 kPa and 0.0834 ± 0.0039 kPa
298.1 K	0.1047 ± 0.0049 kPa
298.5 K	0.1064 ± 0.0049 kPa
301.1 K	0.1353 ± 0.0064 kPa
301.2 K	0.1294 ± 0.006 kPa and 0.1369 ± 0.0064 kPa and 0.1341 ± 0.0062 kPa
301.3 K	0.1312 ± 0.0061 kPa and 0.1328 ± 0.0062 kPa
304 K	0.1653 ± 0.0077 kPa
304.1 K	0.1667 ± 0.0077 kPa
307.1 K	0.2113 ± 0.0098 kPa
307.3 K	0.2102 ± 0.0098 kPa
310.2 K	0.2494 ± 0.012 kPa
310.3 K	0.2578 ± 0.012 kPa
312.3 K	0.3051 ± 0.014 kPa
313 K	0.3121 ± 0.015 kPa
313.3 K	0.3238 ± 0.015 kPa

CC(N)c1ccccc1 (configuration not stated) [1-phenylethanamine]
Details	vapor or sublimation pressure
283.6 K	0.02509 ± 0.0013 kPa
287.8 K	0.03534 ± 0.0019 kPa
291.3 K	0.04928 ± 0.0026 kPa and 0.04951 ± 0.0027 kPa
295.3 K	0.06595 ± 0.0035 kPa
299.2 K	0.08866 ± 0.0047 kPa
303.1 K	0.1183 ± 0.0063 kPa
307.1 K	0.1552 ± 0.0083 kPa
311 K	0.2024 ± 0.011 kPa
314.9 K	0.2602 ± 0.014 kPa
318.9 K	0.3391 ± 0.018 kPa
322.8 K	0.4391 ± 0.023 kPa

NCCc1ccccc1 [2-phenylethylamine]
Details	vapor or sublimation pressure
285.2 K	0.01545 ± 0.00072 kPa
287.4 K	0.01817 ± 0.00084 kPa
288.2 K	0.01989 ± 0.00092 kPa and 0.01942 ± 0.0009 kPa
290.1 K	0.02316 ± 0.0011 kPa
293.1 K	0.02888 ± 0.0014 kPa
293.2 K	0.03129 ± 0.0015 kPa
298.2 K	0.04648 ± 0.0022 kPa and 0.04334 ± 0.002 kPa
298.3 K	0.0443 ± 0.0021 kPa
300.1 K	0.05196 ± 0.0024 kPa
302 K	0.06007 ± 0.0028 kPa
303.2 K	0.06532 ± 0.003 kPa
303.3 K	0.06414 ± 0.003 kPa and 0.06328 ± 0.003 kPa
304.2 K	0.06955 ± 0.0032 kPa
305.1 K	0.07177 ± 0.0033 kPa and 0.0755 ± 0.0035 kPa
306.4 K	0.08176 ± 0.0038 kPa
308.2 K	0.09258 ± 0.0043 kPa and 0.0878 ± 0.0041 kPa
310.4 K	0.1067 ± 0.005 kPa
311.2 K	0.1201 ± 0.0056 kPa
313.2 K	0.1331 ± 0.0062 kPa
313.4 K	0.1311 ± 0.0061 kPa
314.2 K	0.1374 ± 0.0064 kPa
317.2 K	0.1818 ± 0.0084 kPa
318.2 K	0.1891 ± 0.0088 kPa
318.4 K	0.1878 ± 0.0087 kPa
320.2 K	0.2187 ± 0.01 kPa
323.2 K	0.2655 ± 0.012 kPa

NCc1ccccc1 [benzylamine]
Details	vapor or sublimation pressure
275.5 K	0.01437 ± 0.00067 kPa
276.7 K	0.01472 ± 0.00068 kPa and 0.01525 ± 0.00071 kPa
278.6 K	0.01828 ± 0.00085 kPa
279.6 K	0.01912 ± 0.00089 kPa and 0.02004 ± 0.00093 kPa
281.5 K	0.02307 ± 0.0011 kPa
282.3 K	0.02534 ± 0.0012 kPa and 0.02615 ± 0.0012 kPa
284.5 K	0.03135 ± 0.0015 kPa
285.7 K	0.03458 ± 0.0016 kPa and 0.03341 ± 0.0015 kPa
287.6 K	0.03874 ± 0.0018 kPa
288 K	0.03934 ± 0.0018 kPa
290.5 K	0.04695 ± 0.0022 kPa
291.6 K	0.05362 ± 0.0025 kPa
293.5 K	0.06098 ± 0.0028 kPa
294.2 K	0.06487 ± 0.003 kPa
296.5 K	0.07884 ± 0.0037 kPa
297.7 K	0.08247 ± 0.0038 kPa
298.4 K	0.0869 ± 0.004 kPa
300.3 K	0.1015 ± 0.0047 kPa
301.3 K	0.1137 ± 0.0053 kPa
303.3 K	0.1283 ± 0.006 kPa
303.4 K	0.1277 ± 0.0059 kPa and 0.1263 ± 0.0059 kPa
303.5 K	0.126 ± 0.0059 kPa
304.3 K	0.1363 ± 0.0063 kPa
306.1 K	0.1469 ± 0.0068 kPa
306.3 K	0.1514 ± 0.007 kPa
307.4 K	0.1693 ± 0.0079 kPa
308.3 K	0.1781 ± 0.0083 kPa
308.4 K	0.1767 ± 0.0082 kPa
309.4 K	0.1871 ± 0.0088 kPa
309.5 K	0.1951 ± 0.0092 kPa
310.3 K	0.2082 ± 0.0097 kPa
312.2 K	0.2284 ± 0.011 kPa
312.3 K	0.2272 ± 0.011 kPa and 0.2339 ± 0.011 kPa
313.4 K	0.2491 ± 0.012 kPa
315.6 K	0.3016 ± 0.014 kPa
